Measured values from patent EP3381897A1, “DERIVATIVES OF THE DISODIUM 2,2'-{CARBONYLBIS[IMINO-3,1-PHENYLENECARBONYLIMINO(1-METHYL-1H-PYRROLE-4,2-DIYL)CARBONYLIMINO]}DINAPHTHALENE-1,5-DISULFONATE SALT AND RELATED COMPOUNDS AS HEPARANASE INHIBITORS FOR THE TREATMENT OF CANCER” (Leadiant Biosciences SA, priority 2017, dated 2018).
Counter-ions that a name gives are not always drawn.

How the values were obtained:
[1] = tested on: HT1080 (human fibrosarcoma); assay: Cell adhesion assay on matrigel coated wells; type: cell-based; conditions: percent of adhesion with respect to the control (100%)
Protocol: Cell surface, non-integrin molecules such as heparan sulfate proteoglycans (HSPGs) may be involved in the regulation of early adhesive stages of cell-ECM interactions. A cell adhesion assay has been employed to determine if the newly designed heparanase inhibitors were able to interfere with adhesion properties of cancer cells. […] Then cells were collected, washed in complete medium, and added to matrigel coated wells in triplicate, at previously identified optimal seeding density, and incubated at 37 °C in complete medium for times ranging from 15 minutes to 4h, according to the cell line. […] Optical density was measured at 560 nm by Victor 3 (Perkin-Elmer) plate analyzer. Each experiment was repeated three times. Table 4. […] In Invasion assay, data were expressed as the percent invasion (range) with respect to cell migration through uncoated insert membrane.

FGF-2 = assay: Real-Time quantitative PCR of mRNA gene expression in HT1080 cells; type: cell-based, human; conditions: 2.5 uM, 24 h
VEGF = assay: as above; type: cell-based, human; conditions: 2.5 uM, 24 h
HPSE-1 = conditions: 2.5µM; HT1080 cells
Protocol: To evaluate the effect of heparanase inhibitors on the tumor transcription of genes encoding for proangiogenic factors, such as FGF1/2, VEGF, MMP-9, HSPE-1, the relative mRNA levels were analyzed by quantitative Real-Time Quantitative PCR. To perform the assay, HT1080 (human fibrosarcoma) cells were cultured in complete medium containing 10%FCS (fetal calf serum). Cells were plated in 24-well plates and treated at fixed concentration (i.e., highest non-toxic concentration) of test compounds. After 24 h, cells were detached, collected and total RNA extracted by RNeasy Mini Kit (QIAGEN). Following reverse transcription step, FGF1/2, VEGF, MMP-9, HSPE-1 mRNA levels, were quantified by qPCR using the advanced Universal SYBR Green Supermix (Bio Rad) and ABI PRISM 7900HT Thermal Cycler System (Perkin Elmer), according to the manufacturer's instructions. […] Relative levels of RNA were calculated using the ddCt method. Standard curve and sample data were run in duplicate.

MMP-9 = assay: Real-Time quantitative PCR of mRNA gene expression in HT1080 cells; type: cell-based, human; conditions: 2.5 uM, 24 h
FGF-1 = assay: as above; type: cell-based, human; conditions: 2.5 uM, 24 h
[2] = tested on: U87MG (human glioblastoma astrocytoma); assay: SRB Cell Cytotoxicity Assay; type: cell-based
Protocol: (§1) SRB Cell Cytotoxicity Assay is an assay based upon the quantitative staining of cellular proteins by sulforhodamine B (SRB). This assay can be used for high-throughput drug screening ([…], Nature Protocol. 2006, 1, 112). Sulforhodamine B is an anionic aminoxanthene dye that forms an electrostatic complex with the basic amino acid residues of proteins under moderately acid conditions, which provides a sensitive linear response. […] Inhibition of cell proliferation was then measured by the classical colorimetric SRB Cell Cytotoxicity assay. Absorbance was measured by spectrophotometer at a wavelength of 510 nm and cell proliferation was determined as percent with respect to control cells (cells treated with the vehicle alone). EC50 values were then determined by GraphPad Prism.

[3] = tested on: HT1080 (human fibrosarcoma); assay: SRB Cell Cytotoxicity Assay; type: cell-based
Protocol: as §1

[4] = tested on: U2OS (human osteosarcoma); assay: SRB Cell Cytotoxicity Assay; type: cell-based
Protocol: as §1

[5] = tested on: HT1080 (human fibrosarcoma); assay: Matrigel cell invasion assay; type: cell-based; conditions: HT-1080
Protocol: Heparanase inhibitors were then evaluated for their activity on the invasive potential of HT1080 (human fibrosarcoma) human cell lines, using the Matrigel cell invasion assay which allows to assess the cell invasion ability of malignant and normal cells. Invasion assay was performed using BioCoat cell culture inserts (BioCoat 8.0µm PET Membrane 24 Well Permeable Supports, Corning). Filters were coated with 100 µl of 300 µg/ml Matrigel dissolved in coating buffer (0.01 M Tris pH 8.0, 0.7% NaCl) (Becton-Dickinson Sciences). DMEM (Dulbecco's Modified Eagle's Medium) containing 5% FBS was added to the lower chambers. Cells were pre-treated with heparanase inhibitors for 24 h, detached and added to the upper chambers in media containing the inhibitors. Cells were allowed to invade for 24 h at 37°C in a CO2 incubator and then unmigrated cells were removed from the upper chamber with a cotton swab. […] Test compounds were analyzed at fixed concentration for several fields, in duplicates. Activity of test compounds was compared to the reference compound. Activity of most interesting compound was confirmed in a second cell invasion assay. Data were expressed as the percent invasion with respect to cell migration through uncoated insert membrane. (Table 4) Table 4. […] In Invasion assay, data were expressed as the percent invasion (range) with respect to cell migration through uncoated insert membrane.

SMILES: Cn1cc(NC(=O)Nc2cc(C(=O)Nc3cccc(C(=O)Nc4ccc5c(S(=O)(=O)O)cccc5c4S(=O)(=O)O)c3)n(C)c2)cc1C(=O)Nc1cccc(C(=O)Nc2ccc3c(S(=O)(=O)O)cccc3c2S(=O)(=O)O)c1 [Example 6, Disodium 2,2'-{carbonylbis[imino(1-methyl-1H-pyrrole-4,2-diyl)carbonylimino-3,1-phenylenecarbonylimino]}dinaphthalene-1,5-disulfonate salt]
- Adhesion Assay (%) HT1080; 2.5 µM ([1]; 2.5 µM): ∼ 86%
- Gene Expression (% mRNA vs. control) FGF-2 (FGF-2): ∼ 98%
- Gene Expression (% mRNA vs. control) VEGF (VEGF): ∼ 85%
- silencing of heparanase gene (in words) (HPSE-1): almost complete silencing of heparanase gene
- Gene Expression (% mRNA vs. control) MMP-9 (MMP-9): ∼ 80%
- Gene Expression (% mRNA vs. control) FGF-1 (FGF-1): ∼ 87%

SMILES: O=C(Nc1cccc(C(=O)Nc2cc(C(=O)Nc3ccc4c(S(=O)(=O)[O-])cccc4c3S(=O)(=O)[O-])n(C3CC3)c2)c1)Nc1cccc(C(=O)Nc2cc(C(=O)Nc3ccc4c(S(=O)(=O)O)cccc4c3S(=O)(=O)O)n(C3CC3)c2)c1.[Na+].[Na+] [Example 2, Disodium 2,2'-{carbonylbis[imino-3,1-phenylenecarbonylimino(1-cyclopropyl-1H-pyrrole-4,2-diyl)carbonylimino]}dinaphthalene-1,5-disulfonate salt]
- Adhesion Assay (%) HT1080; 2.5 µM ([1]; 2.5 µM): ∼ 88%

SMILES: Cn1cc(NC(=O)c2cccc(NC(=O)Nc3cccc(C(=O)Nc4cc(C(=O)Nc5ccc6c(S(=O)(=O)O)cccc6c5S(=O)(=O)O)n(C)c4)c3)c2)cc1C(=O)Nc1ccc2c(S(=O)(=O)[O-])cccc2c1S(=O)(=O)[O-].[Na+].[Na+] [Example 1, Disodium 2,2'-{carbonylbis[imino-3,1-phenylenecarbonylimino(1-methyl-1H-pyrrole-4,2-diyl)carbonylimino]}dinaphthalene-1,5-disulfonate salt]
- Adhesion Assay (%) HT1080; 2.5 µM ([1]; 2.5 µM): ∼ 86%

SMILES: Cn1cc(NC(=O)Nc2cc(C(=O)Nc3cc(C(=O)Nc4ccc5c(S(=O)(=O)O)cccc5c4S(=O)(=O)O)n(C)c3)n(C)c2)cc1C(=O)Nc1cc(C(=O)Nc2ccc3c(S(=O)(=O)O)cccc3c2S(=O)(=O)O)n(C)c1 [FCE27266, disodium 2,2'-{carbonylbis[imino(1-methyl-1H-pyrrole-4,2-diyl)carbonylimino(1-methyl-1H-pyrrole-4,2-diyl)carbonylimino]}dinaphthalene-1,5-disulfonate salt]
- Adhesion Assay (%) HT1080; 2.5 µM ([1]; 2.5 µM): ∼ 93%
- Gene Expression (% mRNA vs. control) FGF-2 (FGF-2): ∼ 86%
- Gene Expression (% mRNA vs. control) VEGF (VEGF): ∼ 100%
- silencing of heparanase gene (in words) (HPSE-1): almost complete silencing of heparanase gene
- Gene Expression (% mRNA vs. control) MMP-9 (MMP-9): ∼ 100%
- Gene Expression (% mRNA vs. control) FGF-1 (FGF-1): ∼ 44%

SMILES: Cc1ccc(C(=O)Nc2ccc(S(=O)(=O)O)c3cc(S(=O)(=O)O)cc(S(=O)(=O)O)c23)cc1NC(=O)c1cccc(NC(=O)Nc2cccc(C(=O)Nc3cc(C(=O)Nc4ccc(S(=O)(=O)O)c5cc(S(=O)(=O)O)cc(S(=O)(=O)O)c45)ccc3C)c2)c1 [Suramin, suramin]
- Adhesion Assay (%) HT1080; 2.5 µM ([1]; Reference compound (Suramin) at 10 µM according to b319): ∼ 100%
- IC50 ([2]; Homo sapiens, U-87 MG, 72h treatment, read-out: Concentration of test compounds at which the cell growth is inhibited by 50 % U87MG): > 2500 nM
- interference with the cell growth (in words) ([2]; U87MG, tested up to 2.5 µM): do not interfere with the cell growth
- interference with the cell growth (in words) ([3]; HT1080, tested up to 2.5 µM): do not interfere with the cell growth
- IC50 ([3]; Homo sapiens, HT-1080, 72h treatment, read-out: Concentration of test compounds at which the cell growth is inhibited by 50 % HT1080): > 2500 nM
- IC50 ([4]; Homo sapiens, 72h treatment, read-out: Concentration of test compounds at which the cell growth is inhibited by 50 % U2OS): > 2500 nM
- interference with the cell growth (in words) ([4]; tested up to 2.5 µM): do not interfere with the cell growth
- inhibition at 2.5 µM [5]: < 50%
